Assay results: patent EP2910557A1, “Enantiopure tetrasubstituted pyrrolidines as scaffolds for proteasome inhibitors and medicinal applications thereof” (Ikerchem, S.L., priority 2014, dated 2015)

Legend:
MIA PaCa-2 = assay: Cancer cell growth inhibition, 72 h treatment; format: cell-based; conditions: Homo sapiens
Protocol: (§1) Cell culture-based assays were used to evaluate the ability of compounds of the invention to inhibit cancer cell growth.
(§2) Cells were obtained from the American Type Culture Collection (ATCC) and the European Collection of Cell Cultures. Cells were thawed in their appropriate media plus supplements (see table below). Cells were passaged at confluence by washing once in HBSS cation-free followed by a 3 minutes incubation with trypsin ([0.5 µg/ml]/EDTA [0.2 µg/ml]) (Gibco-BRL, 15400054) solution in HBSS at 37°C (except non-adherent cell lines - hematologic), and transferred to their appropriate media plus supplements. Prior to seeding at defined cell concentration, cells were recovered in medium, centrifuged, taken up in medium and counted.
(§3) All treatments were performed in triplicate. Experiments were carried out in 96-well cell culture plates (Cultek) and the cell lines seeded at the density mentioned in the table above and cultured at 37°C with 5% CO2. After 24h, media were supplemented by 100 µl/well of diluted test compound at variable final concentrations and incubated for 72 hours. Then, AlamarBlue® Reagent (Biosource DAL1100) was added to each well and incubated at 37°C for 4 hours. Relative fluorescent intensity that correlates with the number of living cells was read in a Cytofluor plate reader (Millipore) at 535/590 nm (Excitation/emission). After reading the AlamarBlue® signal, the hexosaminidase activitity was measured according to the following protocol: medium was removed and cells were washed once with PBS. 60 µl of substrate solution (p-nitrophenol-N-acetyl-beta-D-glucosaminide 7.5 mM [Sigma N-9376], sodium citrate 0.1 M, pH 5.0, 0.25% Triton X-1 00) was added to each well and incubated at 37°C for 1-2 hours; after this incubation time, a bright yellow colour appears; then, plates could be developed by adding 90 µl of developer solution (Glycine 50 mM, pH 10.4; EDTA 5 mM), and absorbance was recorded at 405 nm.
(§4) Note: In all cases assays were performed in Alamar Blue with the exception of those indicated (* = Hexosaminidase assay)

K562 = assay: Cancer cell growth inhibition, 72 h treatment; format: cell-based; conditions: Homo sapiens, Hematologic K562, Alamar Blue
Protocol: as §1, §2, §3, §4

143b = assay: Cancer cell growth inhibition, 72 h treatment; format: cell-based; conditions: Homo sapiens, Osteosarcoma 143b, Alamar Blue
Protocol: as §1, §2, §3, §4

RWP-1 = assay: Cancer cell growth inhibition, 72 h treatment; format: cell-based
Protocol: as §1, §2, §3, §4

NCI-H1650 = assay: Cancer cell growth inhibition, 72 h treatment; format: cell-based; conditions: Homo sapiens
Protocol: as §1, §2, §3, §4

DU-145 = assay: Cancer cell growth inhibition, 72 h treatment; format: cell-based; conditions: Homo sapiens, Prostate cancer DU-145, Alamar Blue
Protocol: as §1, §2, §3, §4

PANC-1 = assay: Cancer cell growth inhibition, 72 h treatment; format: cell-based; conditions: Homo sapiens, Pancreatic cancer PANC-1, Alamar Blue
Protocol: as §1, §2, §3, §4

A431 = assay: Cancer cell growth inhibition, 72 h treatment; format: cell-based; conditions: Homo sapiens
Protocol: as §1, §2, §3, §4

RCC 786-O = assay: Cancer cell growth inhibition, 72 h treatment; format: cell-based; conditions: Homo sapiens, 786-0, Renal RCC 786-O, Alamar Blue
Protocol: as §1, §2, §3, §4

HT-1080 = assay: Cancer cell growth inhibition, 72 h treatment; format: cell-based; conditions: Homo sapiens
Protocol: as §1, §2, §3, §4

[1] = target: T1, Human erythrocyte 20S proteasome (Homo sapiens, UniProt P28074); assay: In vitro enzymatic assay of proteasome inhibitory activity (Suc-Leu-Leu-Val-Tyr-AMC substrate); format: biochemical; conditions: for inhibition at 0.05 µM: Concentration 50 nM; for IC50: human erythrocyte 20S proteasome, 10 µM Suc-Leu-Leu-Val-Tyr-AMC, 37°C
T1 construct: Enzyme: Human erythrocyte 20S proteasome; from tissue; host or cells: human erythrocytes
Protocol: Example 20: In vitro enzymatic assay of proteasome inhibitory activity.
Substrate: Suc-Leu-Leu-Val-Tyr-AMC
Assay buffer: 250 mM HEPES, pH 7.5, 0.5 mM EDTA, 0.03% SDS, 0.05% Igepal CA-630.
Enzyme: Human erythrocyte 20S proteasome
In vitro proteasome inhibitory activity of the compounds of the invention is evaluated by spectrofluorimetric quantitation of AMC. Stock solutions of compounds of the invention are prepared in dimethyl sulphoxide (DMSO). Test compound and/or vehicle is preincubated with […] enzyme (human erythrocyte 20S proteasome) in modified HEPES buffer pH 7.5 and 1% final concentration of DMSO for 15 minutes at 37°C. The reaction is initiated by addition of 10 µM Suc-Leu-Leu-Val-Tyr-AMC for another 30 minutes incubation period at 37°C. Determination of the release of AMC is read spectrophotometrically (excitation, 380 nm; emission, 460 nm). IC50 values are determined by a non-linear, least squares regression analysis using MathlQTM (ID Business Solutions Ltd., UK).

[2] = Pancreatic cancer RWP-1, Alamar Blue
[3] = Lung cancer NCI-H1650, Hexosaminidase assay (*)
[4] = A-431, Epidermoid A431, Alamar Blue
[5] = Fibrosarcoma HT-1080, Alamar Blue
[6] = Pancreatic cancer MIA PaCa-2, Alamar Blue
[7] = Lung cancer NCI-H1650, Alamar Blue

Row | SMILES | EC50 (MIA PaCa-2; Pancreatic cancer MIA PaCa-2, Hexosaminidase assay (*)) [nM] | EC50 (K562) [nM] | EC50 (143b) [nM] | EC50 (RWP-1; [2]) [nM] | EC50 (NCI-H1650; [3]) [nM] | EC50 (DU-145) [nM] | EC50 (PANC-1) [nM] | EC50 (A431; [4]) [nM] | EC50 (RCC 786-O) [nM] | EC50 (HT-1080; [5]) [nM] | inhibition at 0.05 µM [1] [%] | IC50 [1] [nM] | EC50 (MIA PaCa-2; [6]) [nM] | EC50 (NCI-H1650; [7]) [nM] | EC50 (A431; A-431, Epidermoid A431, Hexosaminidase assay (*)) [nM] | inhibition at 0.5 µM ([1]; Concentration 500 nM) [%] | EC50 (RWP-1; Pancreatic cancer RWP-1, Hexosaminidase assay (*)) [nM] | inhibition at 0.1 µM ([1]; Concentration 100 nM) [%] | EC50 (HT-1080; Fibrosarcoma HT-1080, Hexosaminidase assay (*)) [nM]
1 | CC(C)C[C@H](NC(=O)[C@@H]1N[C@H](c2ccc3ccccc3c2)[C@@H]([N+](=O)[O-])[C@@H]1c1ccccc1)B(O)O [Example 12, (R)-3-methyl-1-((2R,3R,4S,5R)-5-(naphthalen-2-yl)-4-nitro-3-phenylpyrrolidine-2-carboxamido)butylboronic acid] |  | 2700 | 370 |  |  | 350 |  | 410 | 2400 | 460 | 50 | 46 | 1900 | 370 |  |  |  |  | 
2 | CC(C)C[C@H](NC(=O)[C@@H]1CCCN1)B(O)O [MG-319, {(R)-3-methyl-1-[(S)-pyrrolidine-2-carboxamido]butyl}boronic acid, reference compound] |  | 19000 | 980 |  |  | 58000 |  | 10000 | 19000 | 8900 |  |  | 22000 | 14000 |  | 25 |  |  | 
3 | CC(C)C[C@H](NC(=O)[C@@H]1N[C@H](c2ccccc2)[C@@H]([N+](=O)[O-])[C@@H]1c1ccccc1)B(O)O [Example 1, (R)-3-methyl-1-((2R,3R,4S,5R)-4-nitro-3,5-diphenylpyrrolidine-2-carboxamido)butylboronic acid] |  | 6300 | 5000 |  |  | 1900 |  | 970 | 4700 | 1700 |  | 39 | 5700 | 3300 |  |  | 24000 | 73 | 
4 | CC(C)C[C@H](NC(=O)[C@H]1N[C@@H](c2ccccc2)[C@@H]([N+](=O)[O-])[C@@H]1c1ccccc1)B(O)O [Example 4, (R)-3-methyl-1-((2S,3R,4S,5S)-4-nitro-3,5-diphenylpyrrolidine-2-carboxamido)butylboronic acid] |  | 2000 | 2000 | 3600 |  | 1200 |  | 970 | 1700 | 1700 | 51 | 46 | 3000 | 790 |  |  |  |  | 
5 | CC(C)C[C@H](NC(=O)[C@@H]1N[C@H](c2ccccc2)[C@@H]([N+](=O)[O-])[C@@H]1c1ccc(F)cc1)B(O)O [Example 6, (R)-1-((2R,3R,4S,5R)-3-(4-fluorophenyl)-4-nitro-5-phenylpyrrolidine-2-carboxamido)-3-methylbutylboronic acid] |  | 15000 | 1900 | 4400 | 12000 | 3500 | 14000 | 100 | 12000 |  | 70 | 17 | 83000 |  |  |  |  |  | 16000

These reach a lower EC50 (K562). Values come first.

Row | EC50 (MIA PaCa-2; Pancreatic cancer MIA PaCa-2, Hexosaminidase assay (*)) [nM] | EC50 (K562) [nM] | EC50 (143b) [nM] | EC50 (RWP-1; [2]) [nM] | EC50 (NCI-H1650; [3]) [nM] | EC50 (DU-145) [nM] | EC50 (PANC-1) [nM] | EC50 (A431; [4]) [nM] | EC50 (RCC 786-O) [nM] | EC50 (HT-1080; [5]) [nM] | inhibition at 0.05 µM [1] [%] | IC50 [1] [nM] | EC50 (MIA PaCa-2; [6]) [nM] | EC50 (NCI-H1650; [7]) [nM] | EC50 (A431; A-431, Epidermoid A431, Hexosaminidase assay (*)) [nM] | inhibition at 0.5 µM ([1]; Concentration 500 nM) [%] | EC50 (RWP-1; Pancreatic cancer RWP-1, Hexosaminidase assay (*)) [nM] | inhibition at 0.1 µM ([1]; Concentration 100 nM) [%] | EC50 (HT-1080; Fibrosarcoma HT-1080, Hexosaminidase assay (*)) [nM] | SMILES
6 | 850 | 1000 | 100 | 420 | 1200 | 570 | 580 | 20 | 1000 | 890 | 81 | 7.55 |  |  |  |  |  |  |  | CC(C)C[C@H](NC(=O)[C@@H]1N[C@H](c2ccccc2)[C@@H]([N+](=O)[O-])[C@@H]1c1ccco1)B(O)O [Example 11, (R)-1-((2R,3R,4S,5R)-3-(furan-2-yl)-4-nitro-5-phenylpyrrolidine-2-carboxamido)-3-methylbutylboronic acid]
7 |  | 1200 | 290 | 1100 | 1800 | 910 | 3000 |  | 430 | 1400 | 79 | 12 | 2400 |  | 30 |  |  |  |  | CC(C)C[C@H](NC(=O)[C@@H]1N[C@H](c2ccccc2)[C@@H]([N+](=O)[O-])[C@@H]1c1cccs1)B(O)O [Example 10, (R)-3-methyl-1-((2R,3R,4S,5R)-4-nitro-5-phenyl-3-(thiophen-2-yl)pyrrolidine-2-carboxamido)butylboronic acid]
